Source: the NIST ThermoML archive (doi:10.1021/je900938b)

Assay: xn = mol fraction of the nth substance listed
Settings: 101 kPa, Liquid; for mass density: Pycnometric method

OCC(O)CO [glycerol] + OCCO
Settings | mass density, 298.15 K [kg/m3] | mass density, 303.15 K [kg/m3] | mass density, 308.15 K [kg/m3] | mass density, 313.15 K [kg/m3] | mass density, 318.15 K [kg/m3] | viscosity, 298.15 K [mPa·s] | viscosity, 303.15 K [mPa·s] | viscosity, 308.15 K [mPa·s] | viscosity, 313.15 K [mPa·s]
x1 = 0.1001 | 1129.2 | 1126.3 | 1122.9 | 1119.9 | 1116.3 | 25.1 | 20.7 | 17 | 14
x1 = 0.2002 | 1147.2 | 1144.4 | 1141.2 | 1138.2 | 1134.7 | 37.4 | 30.3 | 24.1 | 19.6
x1 = 0.3001 | 1164 | 1161.2 | 1158.2 | 1155.2 | 1151.8 | 55 | 43.1 | 33.9 | 27
x1 = 0.4002 | 1180.2 | 1177.3 | 1174.5 | 1171.6 | 1168.2 | 82.8 | 64.2 | 48.5 | 38.2
x1 = 0.4991 | 1195 | 1192.2 | 1189.5 | 1186.7 | 1183.3 | 121.4 | 91.4 | 69.4 | 52.6
x1 = 0.6011 | 1209.4 | 1206.7 | 1204 | 1201.3 | 1197.8 | 184.2 | 134 | 100.2 | 75.2
x1 = 0.7015 | 1222.6 | 1219.7 | 1217 | 1214.3 | 1210.9 | 272.9 | 195 | 142.4 | 107
x1 = 0.7981 | 1234.5 | 1231.5 | 1229.1 | 1226.5 | 1223.1 | 405.9 | 285.9 | 206.2 | 145.2
x1 = 0.8961 | 1246.1 | 1243.2 | 1240.7 | 1238 | 1234.7 | 611.8 | 422.7 | 299.9 | 204.6
x1 = 1 | 1257.8 | 1254.7 | 1252.2 | 1249.4 | 1245.8 | 943.8 | 628.9 | 431.9 | 295.9
